Laboratory results from patent US9023789B2, “Amylin analogs and pharmaceutical compositions thereof” (Novo Nordisk A/S, priority 2012, dated 2015).
Numbered stars: 1 amine (or outer) side, 2 acyl side, 3 side chain; on linkers, the order of the positions; unused ones are H or OH. Bridge positions count the residues as written; N and C are the ends. Side chains are listed from the residue outwards. Peptide text beside a SMILES is read from it. * marks the point of attachment. C20 diacid = O=C(O)CCCCCCCCCCCCCCCCCCC(=O)*; γGlu = O=C(O)[C@H](CCC(=O)[*:2])N[*:1]; AEEA = NCCOCCOCC(=O)O

assay: ASSAY (III) ThT fibrillation assay for physical stability; type: physicochemical
In short: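 Formulations with 1 μM ThT, pH adjusted as required, incubated at 37 °C with 960 rpm orbital shaking; fluorescence (ex 444/em 485 nm) read every 20 min. Fibrillation reported as mean ThT fluorescence ± SD of 4–8 replicates at time points; polypeptide concentration measured by reverse-phase HPLC before and after, post-centrifugation.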

ThT pH 4.0 lag time (h) | Structure (SMILES)
22 | CC[C@H](C)[C@H](NC(=O)[C@H](C)NC(=O)CNC(=O)[C@H](Cc1ccccc1)NC(=O)[C@H](CC(N)=O)NC(=O)[C@@H]1CCCN1C(=O)[C@H](CO)NC(=O)[C@H](CO)NC(=O)[C@H](Cc1c[nH]cn1)NC(=O)[C@H](CCCNC(=N)N)NC(=O)[C@H](CC(C)C)NC(=O)[C@H](Cc1ccccc1)NC(=O)[C@H](CC(N)=O)NC(=O)[C@H](C)NC(=O)[C@H](CC(C)C)NC(=O)[C@H](CCCNC(=N)N)NC(=O)[C@H](CCC(N)=O)NC(=O)[C@@H](NC(=O)[C@H](C)NC(=O)[C@@H]1CSSC[C@H](NC(=O)[C@@H](N)CCCCNC(=O)COCCOCCNC(=O)CC[C@H](NC(=O)CCCCCCCCCCCCCCCCCCC(=O)O)C(=O)O)C(=O)N[C@@H](CC(N)=O)C(=O)N[C@@H]([C@@H](C)O)C(=O)N[C@@H](C)C(=O)N[C@@H]([C@@H](C)O)C(=O)N1)[C@@H](C)O)C(=O)N1CCC[C@H]1C(=O)N[C@@H](CO)C(=O)N1CCC[C@H]1C(=O)N[C@H](C(=O)N[C@@H](CC(N)=O)C(=O)N[C@H](C(=O)NCC(=O)N1CCC[C@H]1C(=O)N[C@@H](CC(N)=O)C(=O)N[C@H](C(=O)N[C@@H](Cc1ccc(O)cc1)C(N)=O)[C@@H](C)O)C(C)C)[C@@H](C)O [Example 56] (H-K([AEEA-γGlu-C20 diacid])CNTATCATQRLANFLRHSSPNFGAIPSPTNVGPNTY-NH2; disulfide 2-7 (inferred); N-terminus assumed)
30 | CC[C@H](C)[C@H](NC(=O)[C@H](C)NC(=O)CNC(=O)[C@H](Cc1ccccc1)NC(=O)[C@H](CC(N)=O)NC(=O)[C@@H]1CCCN1C(=O)[C@H](CO)NC(=O)[C@H](CO)NC(=O)[C@H](Cc1c[nH]cn1)NC(=O)[C@H](CCCNC(=N)N)NC(=O)[C@H](CC(C)C)NC(=O)[C@H](Cc1ccccc1)NC(=O)[C@H](CC(N)=O)NC(=O)[C@H](C)NC(=O)[C@H](CC(C)C)NC(=O)[C@H](CCCNC(=N)N)NC(=O)[C@H](CCC(N)=O)NC(=O)[C@@H](NC(=O)[C@H](C)NC(=O)[C@@H]1CSSC[C@H](NC(=O)[C@@H](N)CCCCNC(=O)COCCOCCNC(=O)COCCOCCNC(=O)CC[C@H](NC(=O)CCCCCCCCCCCCCCCCCCC(=O)O)C(=O)O)C(=O)N[C@@H](CC(N)=O)C(=O)N[C@@H]([C@@H](C)O)C(=O)N[C@@H](C)C(=O)N[C@@H]([C@@H](C)O)C(=O)N1)[C@@H](C)O)C(=O)N1CCC[C@H]1C(=O)N[C@@H](CO)C(=O)N[C@@H](CO)C(=O)N[C@H](C(=O)N[C@@H](CC(N)=O)C(=O)N[C@H](C(=O)NCC(=O)N[C@@H](Cc1c[nH]cn1)C(=O)N[C@@H](CC(N)=O)C(=O)N[C@H](C(=O)N[C@@H](Cc1ccc(O)cc1)C(N)=O)[C@@H](C)O)C(C)C)[C@@H](C)O [Example 97]
24 | CC[C@H](C)[C@H](NC(=O)[C@H](C)NC(=O)CNC(=O)[C@H](Cc1ccccc1)NC(=O)[C@H](CC(N)=O)NC(=O)[C@@H]1CCCN1C(=O)[C@H](CO)NC(=O)[C@H](CO)NC(=O)[C@H](Cc1c[nH]cn1)NC(=O)[C@H](CCCNC(=N)N)NC(=O)[C@H](CC(C)C)NC(=O)[C@H](Cc1ccccc1)NC(=O)[C@H](CC(N)=O)NC(=O)[C@H](C)NC(=O)[C@H](CC(C)C)NC(=O)[C@H](CCCNC(=N)N)NC(=O)[C@H](CCC(N)=O)NC(=O)[C@@H](NC(=O)[C@H](C)NC(=O)[C@@H]1CSSC[C@H](NC(=O)[C@H](CCCNC(=N)N)NC(=O)CNC(=O)CC[C@H](NC(=O)CCCCCCCCCCCCCCCCCCC(=O)O)C(=O)O)C(=O)N[C@@H](CC(N)=O)C(=O)N[C@@H]([C@@H](C)O)C(=O)N[C@@H](C)C(=O)N[C@@H]([C@@H](C)O)C(=O)N1)[C@@H](C)O)C(=O)N1CCC[C@H]1C(=O)N[C@@H](CO)C(=O)N[C@@H](CO)C(=O)N[C@H](C(=O)N[C@@H](CC(N)=O)C(=O)N[C@H](C(=O)NCC(=O)N[C@@H](CO)C(=O)N[C@@H](CC(N)=O)C(=O)N[C@H](C(=O)N[C@@H](Cc1ccc(O)cc1)C(N)=O)[C@@H](C)O)C(C)C)[C@@H](C)O [Example 46] ({C20 diacid-γGlu}-GRCNTATCATQRLANFLRHSSPNFGAIPSSTNVGSNTY-NH2; disulfide 3-8 (inferred))
0 | CC[C@H](C)[C@H](NC(=O)[C@H](C)NC(=O)CNC(=O)[C@@H]1CCCN1C(=O)[C@H](CC(N)=O)NC(=O)[C@H](CC(N)=O)NC(=O)[C@H](CO)NC(=O)[C@H](CO)NC(=O)[C@H](Cc1c[nH]cn1)NC(=O)[C@H](CCCNC(=N)N)NC(=O)[C@H](CC(C)C)NC(=O)[C@H](Cc1ccccc1)NC(=O)[C@H](CCC(=O)O)NC(=O)[C@H](C)NC(=O)[C@H](CC(C)C)NC(=O)[C@H](CCCNC(=N)N)NC(=O)[C@H](CCC(N)=O)NC(=O)[C@@H](NC(=O)[C@H](C)NC(=O)[C@@H]1CSSC[C@H](NC(=O)[C@@H](N)CCCCNC(=O)CC[C@H](NC(=O)CC[C@H](NC(=O)CCCCCCCCCCCCCCCCCCC(=O)O)C(=O)O)C(=O)O)C(=O)N[C@@H](CC(N)=O)C(=O)N[C@@H]([C@@H](C)O)C(=O)N[C@@H](C)C(=O)N[C@@H]([C@@H](C)O)C(=O)N1)[C@@H](C)O)C(=O)N[C@@H](CC(C)C)C(=O)N[C@@H](CO)C(=O)N[C@@H](CO)C(=O)N[C@H](C(=O)N[C@@H](CC(N)=O)C(=O)N[C@H](C(=O)NCC(=O)N1CCC[C@H]1C(=O)N[C@@H](CCC(=O)O)C(=O)N[C@H](C(=O)N[C@@H](Cc1ccc(O)cc1)C(N)=O)[C@@H](C)O)C(C)C)[C@@H](C)O [Example 126] (H-K([γGlu-γGlu-C20 diacid])CNTATCATQRLAEFLRHSSNNPGAILSSTNVGPETY-NH2; disulfide 2-7 (inferred); N-terminus assumed)
3 | CC[C@H](C)[C@H](NC(=O)[C@H](C)NC(=O)CNC(=O)[C@H](Cc1ccccc1)NC(=O)[C@H](CC(N)=O)NC(=O)[C@@H]1CCCN1C(=O)[C@H](CO)NC(=O)[C@H](CO)NC(=O)[C@H](Cc1c[nH]cn1)NC(=O)[C@H](CCCNC(=N)N)NC(=O)[C@H](CC(C)C)NC(=O)[C@H](Cc1ccccc1)NC(=O)[C@H](CCC(=O)O)NC(=O)[C@H](C)NC(=O)[C@H](CC(C)C)NC(=O)[C@H](CCCNC(=N)N)NC(=O)[C@H](CCC(N)=O)NC(=O)[C@@H](NC(=O)[C@H](C)NC(=O)[C@@H]1CSSC[C@H](NC(=O)[C@@H](N)CCCCNC(=O)CC[C@H](NC(=O)CC[C@H](NC(=O)CCCCCCCCCCCCCCCCCCC(=O)O)C(=O)O)C(=O)O)C(=O)N[C@@H](CC(N)=O)C(=O)N[C@@H]([C@@H](C)O)C(=O)N[C@@H](C)C(=O)N[C@@H]([C@@H](C)O)C(=O)N1)[C@@H](C)O)C(=O)N[C@@H](CC(C)C)C(=O)N[C@@H](CO)C(=O)N[C@@H](CO)C(=O)N[C@H](C(=O)N1CCC[C@H]1C(=O)N[C@H](C(=O)NCC(=O)N1CCC[C@H]1C(=O)N[C@@H](CCC(=O)O)C(=O)N[C@H](C(=O)N[C@@H](Cc1ccc(O)cc1)C(N)=O)[C@@H](C)O)C(C)C)[C@@H](C)O [Example 121] (H-K([γGlu-γGlu-C20 diacid])CNTATCATQRLAEFLRHSSPNFGAILSSTPVGPETY-NH2; disulfide 2-7; N-terminus assumed)
16 | CC[C@H](C)[C@H](NC(=O)[C@H](C)NC(=O)CNC(=O)[C@H](Cc1ccccc1)NC(=O)[C@H](CC(N)=O)NC(=O)[C@@H]1CCCN1C(=O)[C@H](CO)NC(=O)[C@H](CO)NC(=O)[C@H](Cc1c[nH]cn1)NC(=O)[C@H](CCCNC(=N)N)NC(=O)[C@H](CC(C)C)NC(=O)[C@H](Cc1ccccc1)NC(=O)[C@H](CC(N)=O)NC(=O)[C@H](C)NC(=O)[C@H](CC(C)C)NC(=O)[C@H](CCCNC(=N)N)NC(=O)[C@H](CCC(N)=O)NC(=O)[C@@H](NC(=O)[C@H](C)NC(=O)[C@@H]1CSSC[C@H](NC(=O)[C@H](CCCCN)NC(=O)CC[C@H](NC(=O)CCCCCCCCCCCCCCCCCCC(=O)O)C(=O)O)C(=O)N[C@@H](CC(N)=O)C(=O)N[C@@H]([C@@H](C)O)C(=O)N[C@@H](C)C(=O)N[C@@H]([C@@H](C)O)C(=O)N1)[C@@H](C)O)C(=O)N1CCC[C@H]1C(=O)N[C@@H](CO)C(=O)N[C@@H](CO)C(=O)N[C@H](C(=O)N[C@@H](CC(N)=O)C(=O)N[C@H](C(=O)NCC(=O)N1CCC[C@H]1C(=O)N[C@@H](CCC(=O)O)C(=O)N[C@H](C(=O)N[C@@H](Cc1ccc(O)cc1)C(N)=O)[C@@H](C)O)C(C)C)[C@@H](C)O [Example 29] ({C20 diacid-γGlu}-KCNTATCATQRLANFLRHSSPNFGAIPSSTNVGPETY-NH2; disulfide 2-7)
12 | CC[C@H](C)[C@H](NC(=O)[C@H](C)NC(=O)CNC(=O)[C@H](Cc1ccccc1)NC(=O)[C@H](CC(N)=O)NC(=O)[C@@H]1CCCN1C(=O)[C@H](CO)NC(=O)[C@H](CO)NC(=O)[C@H](Cc1c[nH]cn1)NC(=O)[C@H](CCCNC(=N)N)NC(=O)[C@H](CC(C)C)NC(=O)[C@H](Cc1ccccc1)NC(=O)[C@H](CCCNC(=N)N)NC(=O)[C@H](C)NC(=O)[C@H](CC(C)C)NC(=O)[C@H](CCCNC(=N)N)NC(=O)[C@H](CCC(N)=O)NC(=O)[C@@H](NC(=O)[C@H](C)NC(=O)[C@@H]1CSSC[C@H](NC(=O)[C@@H](N)CCCCNC(=O)CC[C@H](NC(=O)CCCCCCCCCCCCCCCCCCC(=O)O)C(=O)O)C(=O)N[C@@H](CC(N)=O)C(=O)N[C@@H]([C@@H](C)O)C(=O)N[C@@H](C)C(=O)N[C@@H]([C@@H](C)O)C(=O)N1)[C@@H](C)O)C(=O)N1CCC[C@H]1C(=O)N[C@@H](CO)C(=O)N[C@@H](CO)C(=O)N[C@H](C(=O)N[C@@H](CC(N)=O)C(=O)N[C@H](C(=O)NCC(=O)N[C@@H](CO)C(=O)N[C@@H](CC(N)=O)C(=O)N[C@H](C(=O)N[C@@H](Cc1ccc(O)cc1)C(N)=O)[C@@H](C)O)C(C)C)[C@@H](C)O [Example 83]
